# Tests used:
# Test in all cases: Test D controlled growth environment herbicide test, pre- and postemergence
# Type in all cases: in vivo
# [1] = system: foxtail, green (green foxtail, Setaria viridis)
# From the text: (§1) Seeds of plant species selected from bluegrass (annual bluegrass, Poa annua), blackgrass (Alopecurus myosuroides), Canada thistle (Cirsium arvense), canarygrass (Phalaris minor), chickweed (common chickweed, Stellaria media), geranium, cutleaf (cutleaf geranium, Geranium dissectum), galium (catchweed bedstraw, Galium aparine), bromegrass, downy (downy bromegrass, Bromus tectorum), field poppy (Papaver rhoeas), field violet (Viola arvensis), foxtail, green (green foxtail, Setaria viridis), deadnettle (henbit deadnettle, Lamium amplexicaule), ryegrass, Italian (Italian ryegrass, Lolium multiflorum), kochia (Kochia scoparia), lambsquarters (Chenopodium album), oilseed rape (Brassica napus), pigweed (Amaranthus retroflexus), chamomile (scentless chamomile, Matricaria inodora), Russian thistle (Salsola kali), speedwell (bird's-eye speedwell, Veronica persica), barley, spring (spring barley, Hordeum vulgare), wheat, spring (spring wheat, Triticum aestivum), buckwheat, wild (wild buckwheat, Polygonum convolvulus), mustard, wild (wild mustard, Sinapis arvensis), oat, wild (wild oat, Avena fatua), radish, wild (wild radish, Raphanus raphanistrum), windgrass (Apera spica-venti), barley, winter (winter barley, Hordeum vulgare), and wheat, winter (winter wheat, Triticum aestivum) were planted into a silt loam soil and treated preemergence with test chemicals formulated in a non-phytotoxic solvent mixture which included a surfactant.
# (§2) At the same time, these species were planted in pots containing Redi-Earth® planting medium (Scotts Company, 14111 Scottslawn Road, Marysville, Ohio 43041) comprising spaghnum peat moss, vermiculite, wetting agent and starter nutrients and treated with postemergence applications of the test chemicals formulated in the same manner. Plants ranged in height from 2 to 18 cm (1- to 4-leaf stage). Treated plants and controls were maintained in a controlled growth environment for 14 to 21 d after which time all species were compared to controls and visually evaluated. Plant response ratings, summarized in Table D, are based on a scale of 0 to 100 where 0 is no effect and 100 is complete control. A dash (-) response means no test result.
# [2] = system: wheat, winter (winter wheat, Triticum aestivum)
# From the text: as §1, §2
# [3] = system: chickweed (common chickweed, Stellaria media)
# From the text: as §1, §2
# [4] = system: deadnettle (henbit deadnettle, Lamium amplexicaule)
# From the text: as §1, §2
# [5] = system: ryegrass, Italian (Italian ryegrass, Lolium multiflorum)
# From the text: as §1, §2
# [6] = system: kochia (Kochia scoparia)
# From the text: as §1, §2
# [7] = system: speedwell (bird's-eye speedwell, Veronica persica)
# From the text: as §1, §2
# [8] = system: windgrass (Apera spica-venti)
# From the text: as §1, §2
# [9] = system: blackgrass (Alopecurus myosuroides)
# From the text: as §1, §2
# [10] = system: pigweed (Amaranthus retroflexus)
# From the text: as §1, §2
# [11] = system: barley, winter (winter barley, Hordeum vulgare)
# From the text: as §1, §2
# [12] = system: galium (catchweed bedstraw, Galium aparine)
# From the text: as §1, §2
# [13] = system: lambsquarters (Chenopodium album)
# From the text: as §1, §2
# [14] = Postemergence, 31 g ai/ha, scale 0 to 100 (0 no effect, 100 complete control)
# [15] = Postemergence, 125 g ai/ha, visual rating on scale 0 (no effect) to 100 (complete control), 14 to 21 d
# [16] = Postemergence, 250 g ai/ha, scale 0 to 100 (0 no effect, 100 complete control)
# [17] = Preemergence, 62 g ai/ha, scale 0 to 100 (0 no effect, 100 complete control)
# [18] = Preemergence, 125 g ai/ha, scale 0 to 100 (0 no effect, 100 complete control)
# [19] = Preemergence, 250 g ai/ha, scale 0 to 100 (0 no effect, 100 complete control)
# [20] = postemergence, 62 g ai/ha, scale 0 to 100, 0 no effect, 100 complete control
compound,measurement,setting,value
Cc1ccc(-c2c(O)c(Br)nn(C)c2=O)c2ccccc12 [Compound 52],"Foxtail, Green plant response rating",[1]; [14],5
same,"Plant response rating, Foxtail, Green",[1]; [15],10
same,"Plant response rating, Foxtail, Green",[1]; [16],40
same,"Plant response rating (scale of 0 to 100), Foxtail, Green","[1]; Preemergence, 31 g ai/ha",0
same,"Plant response rating, Foxtail, Green",[1]; [17],0
same,"Plant response rating, Foxtail, Green",[1]; [18],15
same,"Plant response rating, Foxtail, Green",[1]; [19],35
same,"Plant response rating, Foxtail, Green",[1]; [20],5
same,"Wheat, Winter plant response rating",[2]; [14],0
same,"Plant response rating, Wheat, Winter",[2]; [15],15
same,"Plant response rating, Wheat, Winter",[2]; [16],15
same,"Plant response rating (scale of 0 to 100), Wheat, Winter","[2]; Preemergence, 31 g ai/ha",0
same,"Plant response rating, Wheat, Winter",[2]; [17],0
same,"Plant response rating, Wheat, Winter",[2]; [18],0
same,"Plant response rating, Wheat, Winter",[2]; [19],0
same,"Plant response rating, Wheat, Winter",[2]; [20],10
same,Chickweed plant response rating,[3]; [14],90
same,"Plant response rating, Chickweed",[3]; [15],90
same,"Plant response rating, Chickweed",[3]; [16],100
same,"Plant response rating (scale of 0 to 100), Chickweed","[3]; Preemergence, 31 g ai/ha",98
same,"Plant response rating, Chickweed",[3]; [17],98
same,"Plant response rating, Chickweed",[3]; [18],100
same,"Plant response rating, Chickweed",[3]; [19],100
same,"Plant response rating, Chickweed",[3]; [20],100
same,Deadnettle plant response rating,[4]; [14],35
same,"Plant response rating, Deadnettle",[4]; [15],35
same,"Plant response rating, Deadnettle",[4]; [16],35
same,"Plant response rating (scale of 0 to 100), Deadnettle","[4]; Preemergence, 31 g ai/ha",0
same,"Plant response rating, Deadnettle",[4]; [17],0
same,"Plant response rating, Deadnettle",[4]; [18],10
same,"Plant response rating, Deadnettle",[4]; [19],25
same,"Plant response rating, Deadnettle",[4]; [20],25
same,"Ryegrass, Italian plant response rating",[5]; [14],40
same,"Plant response rating, Ryegrass, Italian",[5]; [15],75
same,"Plant response rating, Ryegrass, Italian",[5]; [16],80
same,"Plant response rating (scale of 0 to 100), Ryegrass, Italian","[5]; Preemergence, 31 g ai/ha",85
same,"Plant response rating, Ryegrass, Italian",[5]; [17],85
same,"Plant response rating, Ryegrass, Italian",[5]; [18],100
same,"Plant response rating, Ryegrass, Italian",[5]; [19],98
same,"Plant response rating, Ryegrass, Italian",[5]; [20],50
same,Kochia plant response rating,[6]; [14],0
same,"Plant response rating, Kochia",[6]; [15],55
same,"Plant response rating, Kochia",[6]; [16],65
same,"Plant response rating (scale of 0 to 100), Kochia","[6]; Preemergence, 31 g ai/ha",15
same,"Plant response rating, Kochia",[6]; [17],35
same,"Plant response rating, Kochia",[6]; [18],40
same,"Plant response rating, Kochia",[6]; [19],90
same,"Plant response rating, Kochia",[6]; [20],20
same,Speedwell plant response rating,[7]; [14],70
same,"Plant response rating, Speedwell",[7]; [15],100
same,"Plant response rating, Speedwell",[7]; [16],100
same,"Plant response rating (scale of 0 to 100), Speedwell","[7]; Preemergence, 31 g ai/ha",50
same,"Plant response rating, Speedwell",[7]; [17],100
same,"Plant response rating, Speedwell",[7]; [18],95
same,"Plant response rating, Speedwell",[7]; [19],100
same,"Plant response rating, Speedwell",[7]; [20],85
same,Windgrass plant response rating,[8]; [14],0
same,"Plant response rating, Windgrass",[8]; [15],5
same,"Plant response rating, Windgrass",[8]; [16],5
same,"Plant response rating (scale of 0 to 100), Windgrass","[8]; Preemergence, 31 g ai/ha",10
same,"Plant response rating, Windgrass",[8]; [17],10
same,"Plant response rating, Windgrass",[8]; [18],10
same,"Plant response rating, Windgrass",[8]; [19],10
same,"Plant response rating, Windgrass",[8]; [20],5
same,Blackgrass plant response rating,[9]; [14],10
same,"Plant response rating, Blackgrass",[9]; [15],15
same,"Plant response rating, Blackgrass",[9]; [16],40
same,"Plant response rating (scale of 0 to 100), Blackgrass","[9]; Preemergence, 31 g ai/ha",20
same,"Plant response rating, Blackgrass",[9]; [17],20
same,"Plant response rating, Blackgrass",[9]; [18],65
same,"Plant response rating, Blackgrass",[9]; [19],65
same,"Plant response rating, Blackgrass",[9]; [20],15
same,Pigweed plant response rating,[10]; [14],35
same,"Plant response rating, Pigweed",[10]; [15],75
same,"Plant response rating, Pigweed",[10]; [16],80
same,"Plant response rating (scale of 0 to 100), Pigweed","[10]; Preemergence, 31 g ai/ha",60
same,"Plant response rating, Pigweed",[10]; [17],55
same,"Plant response rating, Pigweed",[10]; [18],65
same,"Plant response rating, Pigweed",[10]; [19],90
same,"Plant response rating, Pigweed",[10]; [20],40
same,"Barley, Winter plant response rating",[11]; [14],0
same,"Plant response rating, Barley, Winter",[11]; [15],0
same,"Plant response rating, Barley, Winter",[11]; [16],0
same,"Plant response rating (scale of 0 to 100), Barley, Winter","[11]; Preemergence, 31 g ai/ha",0
same,"Plant response rating, Barley, Winter",[11]; [17],0
same,"Plant response rating, Barley, Winter",[11]; [18],0
same,"Plant response rating, Barley, Winter",[11]; [19],0
same,"Plant response rating, Barley, Winter",[11]; [20],0
same,Galium plant response rating,[12]; [14],90
same,"Plant response rating, Galium",[12]; [15],98
same,"Plant response rating, Galium",[12]; [16],100
same,"Plant response rating (scale of 0 to 100), Galium","[12]; Preemergence, 31 g ai/ha",70
same,"Plant response rating, Galium",[12]; [17],100
same,"Plant response rating, Galium",[12]; [18],90
same,"Plant response rating, Galium",[12]; [19],95
same,"Plant response rating, Galium",[12]; [20],95
same,Lambsquarters plant response rating,[13]; [14],75
same,"Plant response rating, Lambsquarters",[13]; [15],75
same,"Plant response rating, Lambsquarters",[13]; [16],90
same,"Plant response rating (scale of 0 to 100), Lambsquarters","[13]; Preemergence, 31 g ai/ha",35
same,"Plant response rating, Lambsquarters",[13]; [17],90
same,"Plant response rating, Lambsquarters",[13]; [18],100
same,"Plant response rating, Lambsquarters",[13]; [19],100
same,"Plant response rating, Lambsquarters",[13]; [20],75

# Source: patent US10597388B2, “Pyridazinone herbicides” (FMC CORPORATION, priority 2014, dated 2020)
